Laboratory results taken from patent US20250195513A1, “DEGRADATION OF IRAK4 BY CONJUGATION OF IRAK4 INHIBITORS WITH E3 LIGASE LIGAND AND METHODS OF USE” (BeiGene, Ltd., priority 2022, published 2025).
Like-named read-outs stand apart in the source and are kept apart here.

Target: T1, IRAK4 (Homo sapiens, UniProt Q9NWZ3)
T1 construct: endogenous in cells; host or cells: Karpas299
T1 sequence (Q9NWZ3 1-460): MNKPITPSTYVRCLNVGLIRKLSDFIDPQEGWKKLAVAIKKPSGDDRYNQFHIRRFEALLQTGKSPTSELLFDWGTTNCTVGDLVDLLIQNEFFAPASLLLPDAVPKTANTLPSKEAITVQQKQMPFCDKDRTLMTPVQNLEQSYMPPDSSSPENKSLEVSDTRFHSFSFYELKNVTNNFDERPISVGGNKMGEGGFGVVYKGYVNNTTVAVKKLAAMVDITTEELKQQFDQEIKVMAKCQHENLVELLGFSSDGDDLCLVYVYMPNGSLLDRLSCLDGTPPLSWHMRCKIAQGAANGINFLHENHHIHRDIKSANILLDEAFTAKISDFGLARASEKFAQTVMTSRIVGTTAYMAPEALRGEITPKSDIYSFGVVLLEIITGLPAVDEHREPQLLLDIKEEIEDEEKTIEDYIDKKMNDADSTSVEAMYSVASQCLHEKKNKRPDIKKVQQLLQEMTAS
Assay: IRAK4 Degradation Assay (Karpas299, HTRF/TR-FRET)
Format: cell-based
Experimental: IRAK4 degradation was measured using a TR-FRET-based method (Degorce, François, et al. Current chemical genomics. 2009, 3: 22). Karpas299 maintained in RPMI 1640 medium (Thermo Scientific) supplemented with 20% fetal bovine serum (FBS, Thermo Scientific), 100 units/mL penicillin and 0.1 mg/mL streptomycin (Thermo Scientific) were seeded into 96-well plates at the density of 0.2 million cells per well and then treated with a series dilution of compounds. After 24 hours or 5 hours treatment, cells were pelleted via centrifugation and 40 μL lysis buffer (Cisbio) was added to each well after removal of the supernatant. Plates were then incubated at room temperature with shaking for 30 minutes. A total of 16 μL of cell lysates from each well of a 96-well plate was transferred to a 384-well white assay plate. IRAK4 level was quantitated using the HTRF kit as described by the manufacturer manual (Cisbio). FRET signals were measured using a PHERAstar FSX reader (BMG Labtech).
After treatment, add HTRF lysis buffer to each well; seal the plate and incubate 1 hour at room temperature on a plate shaker; Once the cells are lysed, 16 μL of cell lysate are transferred to a PE 384-well HTRF detection plate; 4 μL of pre-mixed HTRF antibodies are added to each well; Cover the plate with a plate sealer, spin 1000 rpm for 1 min, Incubate overnight at room temperature; Read on BMG PheraStar with HTRF protocol (337 nm-665 nm-620 nm).
The inhibition (degradation) percentage of the compound was calculated by the following equation: […]
The IC50 (DC50) value of a compound can be obtained by fitting the following equation
Wherein, X and Y are known values, and IC50, Hillslope, Top and Bottom are the parameters obtained by fitting with software. Y is the inhibition percentage (calculated from the equation), X is the concentration of the compound; IC50 is the concentration of the compound when the […] is reached. The smaller the IC50 value is, the stronger the inhibitory ability of the compound is. Vice versa, the higher the IC50 value is, the weaker the ability the inhibitory ability of the compound is; Hillslope represents the slope of the fitted curve, generally around 1 *; Bottom represents the minimum value of the curve obtained by data fitting, which is generally 0%±20%; Top represents the maximum value of the curve obtained by data fitting, which is generally 100%±20%. The experimental data were fitted by calculating and analyzing with Dotmatics data analysis software.

[1] = Degradation (Karpas-299), comparison table, Linker Type A, read-out: Compound (Linker Type A) DC50
[2] = Degradation (Karpas-299), comparison table, Linker Type A, read-out: Compound (Linker Type A) Dmax (%)
[3] = Karpas-299 cells, 24 h treatment, maximum percentage of degradation, read-out: IRAK4 in Karpas-299 (24 h) Dmax (%)
[4] = Karpas-299 cells, 24 h treatment, read-out: IRAK4 in Karpas-299 (24 h) DC50
[5] = Karpas-299 cells, 5 h treatment, maximum percentage of degradation, read-out: IRAK4 in Karpas-299 (5 h) Dmax (%)
[6] = Karpas-299 cells, 5 h treatment, read-out: IRAK4 in Karpas-299 (5 h) DC50

COc1cc2nn([C@H]3CC[C@H](CN4CCN(C(=O)[C@@H]5CCN(c6ccc(N7CCC(=O)NC7=O)cc6)C5)CC4)CC3)cc2cc1NC(=O)c1cccc(C(F)(F)F)n1 [Example 36, N-(2-((1R,4r)-4-((4-((R)-1-(4-(2,4-dioxotetrahydropyrimidin-1(2H)-yl)phenyl)pyrrolidine-3-carbonyl)piperazin-1-yl)methyl)cyclohexyl)-6-methoxy-2H-indazol-5-yl)-6-(trifluoromethyl)picolinamide]
DC50 [1]: 15 nM
Dmax [2]: 89%
Dmax [3]: 89%
DC50 [4]: 15 nM

N#Cc1cnn2c(C(=O)Nc3cc4cn([C@H]5CC[C@H](N6CCN(CCc7cc(F)c([C@H]8CCC(=O)NC8=O)c(F)c7)CC6)CC5)nc4c4c3OC(F)(F)O4)ccc2c1 [Example 386, 3-cyano-N-(2-((1R,4r)-4-(4-(4-((R)-2,6-dioxopiperidin-3-yl)-3,5-difluorophenethyl)piperazin-1-yl)cyclohexyl)-7,7-difluoro-2H-[1,3]dioxolo[4,5-g]indazol-5-yl)pyrrolo[1,2-b]pyridazine-7-carboxamide]
Dmax [3]: 94%
DC50 [4]: 3.2 nM

NC(=O)c1nn([C@H]2CC[C@H](N3CCN(C4CC(c5ccc(N[C@@H]6CCC(=O)NC6=O)cc5)C4)CC3)CC2)cc1NC(=O)c1coc(-c2ccnc(NCC(F)(F)F)c2)n1 (stereo partly drawn) [Example 9, N-(3-carbamoyl-1-((1r,4r)-4-(4-(3-(4-(((R)-2,6-dioxopiperidin-3-yl)amino)phenyl)cyclobutyl)piperazin-1-yl)cyclohexyl)-1H-pyrazol-4-yl)-2-(2-((2,2,2-trifluoroethyl)amino)pyridin-4-yl)oxazole-4-carboxamide]
Dmax [3]: 95%
DC50 [4]: 2.5 nM

[2H]C([2H])([2H])Oc1cc2nn([C@H]3CC[C@H](N4CCN(C(=O)[C@@H]5CCN(c6cc(F)c(N7CCC(=O)NC7=O)c(F)c6)C5)CC4)CC3)cc2cc1NC(=O)c1cccc(C(F)(F)F)n1 [Example 174, N-(2-((1R,4r)-4-(4-((R)-1-(4-(2,4-dioxotetrahydropyrimidin-1(2H)-yl)-3,5-difluorophenyl)pyrrolidine-3-carbonyl)piperazin-1-yl)cyclohexyl)-6-(methoxy-d3)-2H-indazol-5-yl)-6-(trifluoromethyl)picolinamide]
Dmax [3]: 97%
DC50 [4]: 7.7 nM

CC(C)(O)c1cc2nn([C@H]3CC[C@H](N4CCN(C(=O)C5CCN(c6cc(F)c([C@H]7CCC(=O)NC7=O)c(F)c6)CC5)CC4)CC3)cc2cc1NC(=O)c1cccc(C(F)(F)F)n1 [Example 47, N-(2-((1r,4r)-4-(4-(1-(4-((R)-2,6-dioxopiperidin-3-yl)-3,5-difluorophenyl)piperidine-4-carbonyl)piperazin-1-yl)cyclohexyl)-6-(2-hydroxypropan-2-yl)-2H-indazol-5-yl)-6-(trifluoromethyl)picolinamide]
Dmax [3]: 98%
DC50 [4]: 0.6 nM

O=C1CCN(c2c(F)cc(N3CC(C(=O)N4CCN([C@H]5CC[C@H](n6cc(NC(=O)c7cnn(-c8ccnc(NCC9CC9)c8)n7)c(C(F)F)n6)CC5)CC4)C3)cc2F)C(=O)N1 [Example 61, 2-(2-((cyclopropylmethyl)amino)pyridin-4-yl)-N-(3-(difluoromethyl)-1-((1r,4r)-4-(4-(1-(4-(2,4-dioxotetrahydropyrimidin-1(2H)-yl)-3,5-difluorophenyl)azetidine-3-carbonyl)piperazin-1-yl)cyclohexyl)-1H-pyrazol-4-yl)-2H-1,2,3-triazole-4-carboxamide]
Dmax [5]: 86%
DC50 [6]: 24 nM
Dmax [3]: 96%
DC50 [4]: 5 nM

O=C1CC[C@H](c2c(F)cc(N3CC[C@@H](C(=O)N4CCN([C@H]5CC[C@H](n6cc(NC(=O)c7cnn(-c8ccnc(NCC(F)(F)F)c8)n7)c(C(F)F)n6)CC5)CC4)C3)cc2F)C(=O)N1 [Example 52, N-(3-(difluoromethyl)-1-((1R,4r)-4-(4-((R)-1-(4-((R)-2,6-dioxopiperidin-3-yl)-3,5-difluorophenyl)pyrrolidine-3-carbonyl)piperazin-1-yl)cyclohexyl)-1H-pyrazol-4-yl)-2-(2-((2,2,2-trifluoroethyl)amino)pyridin-4-yl)-2H-1,2,3-triazole-4-carboxamide]
Dmax [3]: 96%
DC50 [4]: 2 nM

O=C1CC[C@H](c2c(F)cc(N3CC(C(=O)N4CCN(C[C@H]5CC[C@H](n6cc(NC(=O)c7coc(-c8ccnc(NCC(F)(F)F)c8)n7)c(C(F)F)n6)CC5)CC4)C3)cc2F)C(=O)N1 [Example 4, N-(3-(difluoromethyl)-1-((1r,4r)-4-((4-(1-(4-((R)-2,6-dioxopiperidin-3-yl)-3,5-difluorophenyl)azetidine-3-carbonyl)piperazin-1-yl)methyl)cyclohexyl)-1H-pyrazol-4-yl)-2-(2-((2,2,2-trifluoroethyl)amino)pyridin-4-yl)oxazole-4-carboxamide]
DC50 [1]: 6.2 nM
Dmax [2]: 95%
Dmax [3]: 95%
DC50 [4]: 6.2 nM

[2H]C([2H])([2H])Oc1cc2nn([C@H]3CC[C@H](N4CCN(C(=O)[C@@H]5CCN(c6cc(F)c([C@H]7CCC(=O)NC7=O)c(F)c6)C5)CC4)CC3)cc2cc1NC(=O)c1cccc(C(F)(F)F)n1 [Example 169, N-(2-((1R,4r)-4-(4-((R)-1-(4-((R)-2,6-dioxopiperidin-3-yl)-3,5-difluorophenyl)pyrrolidine-3-carbonyl)piperazin-1-yl)cyclohexyl)-6-(methoxy-d3)-2H-indazol-5-yl)-6-(trifluoromethyl)picolinamide]
Dmax [5]: 95%
DC50 [6]: 17 nM
Dmax [3]: 99%
DC50 [4]: 4.3 nM

COc1cc2nn([C@H]3CC[C@H](CN4CCN(C(=O)C5CN(c6ccc(N7CCC(=O)NC7=O)cc6)C5)CC4)CC3)cc2cc1NC(=O)c1cccc(C(F)(F)F)n1 [Example 5, N-(2-((1r,4r)-4-((4-(1-(4-(2,4-dioxotetrahydropyrimidin-1(2H)-yl)phenyl)azetidine-3-carbonyl)piperazin-1-yl)methyl)cyclohexyl)-6-methoxy-2H-indazol-5-yl)-6-(trifluoromethyl)picolinamide]
DC50 [1]: 14 nM
Dmax [2]: 92%
Dmax [3]: 92%
DC50 [4]: 14 nM

O=C1CC[C@H](c2c(F)cc(N3CC(CN4CCN([C@H]5CC[C@H](n6cc(NC(=O)c7csc(-c8cn[nH]c8)n7)c(C(F)F)n6)CC5)CC4)C3)cc2F)C(=O)N1 [Example 435, N-(3-(difluoromethyl)-1-((1r,4r)-4-(4-((1-(4-((R)-2,6-dioxopiperidin-3-yl)-3,5-difluorophenyl)azetidin-3-yl)methyl)piperazin-1-yl)cyclohexyl)-1H-pyrazol-4-yl)-2-(1H-pyrazol-4-yl)thiazole-4-carboxamide]
Dmax [3]: 100%
DC50 [4]: 0.4 nM

CC(C)(O)c1cc2nn([C@H]3CC[C@H](N4CCN(C(=O)[C@@H]5CCN(c6cc(F)c(N7CCC(=O)NC7=O)c(F)c6)C5)CC4)CC3)cc2cc1NC(=O)c1cccc(C(F)(F)F)n1 [Example 115, N-(2-((1R,4r)-4-(4-((R)-1-(4-(2,4-dioxotetrahydropyrimidin-1(2H)-yl)-3,5-difluorophenyl)pyrrolidine-3-carbonyl)piperazin-1-yl)cyclohexyl)-6-(2-hydroxypropan-2-yl)-2H-indazol-5-yl)-6-(trifluoromethyl)picolinamide]
Dmax [3]: 96%
DC50 [4]: 3.8 nM
